Earlier results, collected in patent US20070117750A1, “METHOD FOR ENHANCED OCULAR DRUG PENETRATION” (priority 2005, published 2007).

Legend:
[1] = topical instillation
[2] = topical ocular dose of 225 μg

| peak concentration time, aqueous humor [1] [min] | peak concentration time, iris ciliary/body ([1]; or first time interval that can be measured) [min] | systemic bioavailability [2] [%] | SMILES |
| --- | --- | --- | --- |
| 15 | 2 |  | Clc1cccc(Cl)c1N=C1NCCN1 [clonidine] |
|  |  | 74 | CC(C(=O)O)c1ccc(-c2ccccc2)c(F)c1 (stereo not drawn) [flurbiprofen] |
